# Measured values as given in patent US7763426B2, “Probes and methods for detection of Escheridia coli and antibiotic resistance” (priority 2004, dated 2010).
# Entries after “also recorded” stand apart in the source; their conditions may differ. {Fluorescein} = fluorescein label (binding site for anti-fluorescein Fab-HRP); {Biotin} = biotin (capture probe anchor)
# Experiments:
# [1] = tested on: 16S rRNA in lysates of uropathogens; experiment: Species specificity of uropathogen probe pairs with the electrochemical sensor array (Example 1); type: binding; conditions: probe pairs of Table 1
# bacterial 16S rRNA = experiment: Clinical validity study: UTI Chip on blinded clinical urine specimens; type: binding
# Method: Amperometric detection of bacterial 16S rRNA. An overview of the electrochemical sensor detection strategy is presented in panel C of FIG. 1. One ml of bacteria in Luria broth, inoculated clean urine, or clinical urine samples was centrifuged at 10,000×g for 5 min. The supernatant was discarded and the bacteria were lysed by resuspension of the pellet in 10 μl of 1 M NaOH and incubation at room temperature for 5 min. In some experiments, addition of 1M NaOH was preceded by resuspension of the bacterial pellet in 10 μl of 0.1% Triton X-100, 2 mM EDTA, and 1 mg/ml lysozyme (Sigma) in 20 mM Tris-HCl, pH 8.0, and incubation at room temperature for 5 min. 50 μl of the detector probe (0.25 μM) in 2.5% bovine serum albumin (Sigma, St. Louis, Mo.) 1 M phosphate buffer, pH 7.4, were added to the bacterial lysate and incubated for 10 min at 65° C. to allow target-probe hybridization. 4 μl of the bacterial lysate/detector probe mixture was deposited on each of the working electrodes in the sensor array and incubated for 15 min at 65° C. in a humidified chamber. After washing and drying, 4 μl of 0.5 U/ml anti-fluorescein horseradish peroxidase (HRP) Fab fragments (Roche, diluted in 0.5% casein in 10 mM phosphate buffered saline, pH 7.4) were deposited on each of the working electrodes for 15 min. After washing and drying, a prefabricated plastic well manifold (GeneFluidics, Monterey Park, Calif.) was bonded to the sensor array. The sensor array was put into the chip reader (FIG. 18) and 50 μl of 3,3′,5,5′-tetramethylbenzidine (TMB), H2O2 solution (K-Blue Low Activity TMB Substrate, Neogen, Lexington, Ky.) was placed on each of the sensors in the array so as to cover all three electrodes of each sensor. Electrochemical measurements are immediately and simultaneously taken for all 16 sensors. For each array, negative control (NC) sensors were tested including the UNI capture probe, detector probe, and 2.5% bovine serum albumin (Sigma, St, Louis, Mo.) in 1 M phosphate buffer, pH 7.4, instead of bacterial lysate. The entire assay protocol was completed within 45 min from the time when bacterial lysis was commenced. Amperometric current vs. time was measured using a multichannel potentiostat (GeneFluidics). The voltage was fixed at −200 mV (vs. reference), and the electroreduction current was measured at 60 s after the HRP redox reaction reached steady state.
# Clinical validity study design. Clinical urine specimens were received from routine urine cultures collected from inpatients and outpatients and submitted to the UCLA Clinical Microbiology Laboratory. Routine plating on tripticase soy agar with 5% sheep blood was performed on each specimen for phenotypic identification and colony counting while an aliquot of each specimen was held at 4° C. overnight. On the day after plating, specimens were selected for inclusion in the study on the basis of a rapid indole test for the purpose of including uropathogens other than Escherichia coli in approximately one-half of the specimens. The other half of the specimens were divided between E. coli-containing specimens and specimens determined to have ““no significant growth” or no growth” (see definitions below). Because most UTIs involve a single uropathogen, specimens determined by the clinical microbiology laboratory to have more than one organism present were excluded. Blinded specimens selected for inclusion in the study were stripped of patient identifiers and any microbiological data before delivery to the research laboratory for testing with the electrochemical sensor array.
# Experiments were performed on all specimens using the 16-sensor array ‘UTI Chip’, in which the UNI, EB, EC, PM, KE, PA, and EF capture probes (defined in Tables 1 and 2) were tested in duplicate. The two remaining sensors served as negative controls (including capture and detector probes without bacterial lysate). […]
# [2] = No Significant Growth specimens
# [3] = specimens with Citrobacter freundii
# [4] = specimens with Citrobacter koseri
# [5] = specimens with Enterobacter aerogenes
# [6] = specimens with Enterobacter cloacae
# [7] = specimens with Enterobacteriaceae
# [8] = specimens with Enterococcus species
# [9] = specimens with Escherichia coli
# [10] = specimens with Gram-negative bacteria
# [11] = specimens with Gram-positive bacteria
# [12] = specimens with Klebsiella pneumoniae
# [13] = specimens with Proteus mirabilis
# [14] = specimens with Pseudomonas aeruginosa
# [15] = specimens with Serratia marcescens
# [16] = specimens with Staph. saprophyticus
substance,measurement,setting,value
"UNI: Universal Bacterial probe pair: capture 797 (27 mer) SEQ ID NO: 13, detector 766 (31 mer) SEQ ID NO: 14 (DNA 1 CATCGTTTACGGCGTGGACTACCAGGG; DNA 2 TATCTAATCCTGTTTGCTCCCCACGCTTTCG; DNA 1: DNA, 5' {Biotin}, backbone and methylation of C not given here; DNA 2: DNA, 5' {Fluorescein}, backbone and methylation of C not given here)",Species detected,[1],"Cf, Ea, Ec, Ef, El, Eo, Ko, Kp,; also recorded: Mm, Pa, Pm, Ss, Sa"
same,Species not detected,[1],None
same,sensitivity for detection of Gram-negative bacteria in clinical urine specimens,bacterial 16S rRNA,100%
same,specificity,bacterial 16S rRNA; 10/12 no growth specimens,83%
same,overall sensitivity for detection of uropathogens in clinical urine specimens,"bacterial 16S rRNA; 54/58, 0.30 log unit threshold",93%
same,Mean (range),bacterial 16S rRNA; All specimens with bacteria,1.28 (0.33-1.84) log10 units over background
same,Positive/Total = Percent,bacterial 16S rRNA; All specimens with bacteria,54/58 = 93%
same,Mean (range),bacterial 16S rRNA; No Growth specimens,0.38 (0.34-0.42) log10 units over background
same,Positive/Total = Percent,bacterial 16S rRNA; No Growth specimens,2/12 = 17%
same,Mean (range),bacterial 16S rRNA; [2],0.42 (0.31-0.57) log10 units over background
same,Positive/Total = Percent,bacterial 16S rRNA; [2],5/3 = 63%
same,Mean (range),bacterial 16S rRNA; [3],1.49 (1.43-1.55) log10 units over background
same,Positive/Total = Percent,bacterial 16S rRNA; [3],2/2 = 100%
same,Mean (range),bacterial 16S rRNA; [4],1.23 log10 units over background
same,Positive/Total = Percent,bacterial 16S rRNA; [4],1/1 = 100%
same,Mean (range),bacterial 16S rRNA; [5],1.35 (0.93-1.65) log10 units over background
same,Positive/Total = Percent,bacterial 16S rRNA; [5],5/5 = 100%
same,Mean (range),bacterial 16S rRNA; [6],1.43 log10 units over background
same,Positive/Total = Percent,bacterial 16S rRNA; [6],1/1 = 100%
same,Mean (range),bacterial 16S rRNA; [7],1.32 (0.40-1.84) log10 units over background
same,Positive/Total = Percent,bacterial 16S rRNA; [7],47/47 = 100%
same,Mean (range),bacterial 16S rRNA; [8],0.92 (0.33-1.78) log10 units over background
same,Positive/Total = Percent,bacterial 16S rRNA; [8],5/8 = 63%
same,Mean (range),bacterial 16S rRNA; [9],1.30 (0.54-1.77) log10 units over background
same,Positive/Total = Percent,bacterial 16S rRNA; [9],26/26 = 100%
same,Mean (range),bacterial 16S rRNA; [10],1.32 (0.40-1.84) log10 units over background
same,Positive/Total = Percent,bacterial 16S rRNA; [10],48/48 = 100%
same,Mean (range),bacterial 16S rRNA; [11],0.95 (0.33-1.78) log10 units over background
same,Positive/Total = Percent,bacterial 16S rRNA; [11],6/10 = 60%
same,Mean (range),bacterial 16S rRNA; [12],1.22 (0.40-1.84) log10 units over background
same,Positive/Total = Percent,bacterial 16S rRNA; [12],8/8 = 100%
same,Mean (range),bacterial 16S rRNA; [13],1.41 (1.16-1.66) log10 units over background
same,Positive/Total = Percent,bacterial 16S rRNA; [13],3/3 = 100%
same,Mean (range),bacterial 16S rRNA; [14],1.33 log10 units over background
same,Positive/Total = Percent,bacterial 16S rRNA; [14],1/1 = 100%
same,Mean (range),bacterial 16S rRNA; [15],1.67 log10 units over background
same,Positive/Total = Percent,bacterial 16S rRNA; [15],1/1 = 100%
same,Mean (range),bacterial 16S rRNA; [16],1.10 log10 units over background
same,Positive/Total = Percent,bacterial 16S rRNA; [16],1/2 = 50%
